≈ marks a conversion by molar mass, not a printed value. Calls of active or inactive are those of the source. The calls are words filed in the database; no cut-off is given here.
What was measured:
[1] = Cardiotoxicity in human iPSC-CM cells assessed as decrease in spike amplitude incubated for 48 hr by multi-electrode array analysis; format: toxicity, cell-based
[2] = Cardiotoxicity in human iPSC-CM cells assessed as increase in field potential duration incubated for 48 hr by multi-electrode array analysis; format: toxicity, cell-based
[3] = tested on: Mus musculus; test: In vivo inhibition of STT3A/STT3B in C57BL/6 mouse assessed as upregulation of MANF expression in blood at 0.1 to 10 mg/kg,po measured after 6 hrs by RT-qPCR analysis; format: functional, organism-based; conditions: dose 0.1-10 mg/kg
[4] = Unbound clearance in CD1 mouse at 2 mg/kg,po or 1 mg/kg,iv administrated upto 60 mins by LC-MS/MS analysis; format: ADME, organism-based; conditions: in vivo, 1 h
[5] = tested on: Mus musculus; test: In vivo inhibition of STT3A/STT3B in C57BL/6 mouse assessed as upregulation of SDF2L1 expression in lung at 0.1 to 10 mg/kg,po measured after 6 hrs by RT-qPCR analysis; format: functional, organism-based; conditions: dose 0.1-10 mg/kg
[6] = Solubility of compound in FaSSIF; format: ADME
[7] = MRT in CD1 mouse at 2 mg/kg,po or 1 mg/kg,iv administrated upto 60 mins by LC-MS/MS analysis; format: ADME, organism-based; conditions: in vivo
[8] = Chromatographic hydrophobicity index, logD of the compound at pH 7.4; format: physicochemical; conditions: buffer
[9] = tested on: Mus musculus; test: In vivo inhibition of STT3A/STT3B in C57BL/6 mouse assessed as upregulation of DERL3 expression in lung at 0.1 to 10 mg/kg,po measured after 6 hrs by RT-qPCR analysis; format: functional, organism-based; conditions: dose 0.1-10 mg/kg
[10] = tested on: Mus musculus; test: In vivo inhibition of STT3A/STT3B in C57BL/6 mouse assessed as upregulation of DERL3 expression in blood at 0.1 to 10 mg/kg,po measured after 6 hrs by RT-qPCR analysis; format: functional, organism-based; conditions: dose 0.1-10 mg/kg
[11] = tested on: Mus musculus; test: In vivo inhibition of STT3A/STT3B in C57BL/6 mouse assessed as upregulation of […] expression in blood at 0.1 to 10 mg/kg,po measured after 6 hrs by RT-qPCR analysis; format: functional, organism-based; conditions: dose 0.1-10 mg/kg
[12] = Inhibition of STT3A/STT3B mediated N-linked glycosylation in human H1-HeLa cells stably transduced with ERluc by measuring effective concentration of inhibition incubated for 18 hrs by One-Glo luciferase reporter assay; format: cell-based
[13] = Bioavailability in CD1 mouse at 2 mg/kg,po or 1 mg/kg,iv administrated upto 60 mins by LC-MS/MS analysis; format: ADME, organism-based; conditions: in vivo
[14] = tested on: Mus musculus; test: In vivo inhibition of STT3A/STT3B in C57BL/6 mouse assessed as upregulation of […] expression in lung at 0.1 to 10 mg/kg,po measured after 6 hrs by RT-qPCR analysis; format: functional, organism-based; conditions: dose 0.1-10 mg/kg
[15] = tested on: Mus musculus; test: In vivo inhibition of STT3A/STT3B in C57BL/6 mouse assessed as upregulation of MANF expression in lung at 0.1 to 10 mg/kg,po measured after 6 hrs by RT-qPCR analysis; format: functional, organism-based; conditions: dose 0.1-10 mg/kg
[16] = tested on: Mus musculus; test: In vivo inhibition of STT3A/STT3B in C57BL/6 mouse assessed as upregulation of SDF2L1 expression in blood at 0.1 to 10 mg/kg,po measured after 6 hrs by RT-qPCR analysis; format: functional, organism-based; conditions: dose 0.1-10 mg/kg
[17] = Volume of distribution at steady state in CD1 mouse at 2 mg/kg,po or 1 mg/kg,iv administrated upto 60 mins by LC-MS/MS analysis; format: ADME, organism-based; conditions: in vivo, 1 h
[18] = Inhibition of STT3A/STT3B mediated N-linked glycosylation in STT3A knockout human H1-HeLa cells stably transduced with Halo3N-ER sequence by measuring effective concentration incubated for 24 hrs by Western blotting analysis; format: cell-based
[19] = Cytotoxicity against human Hepatocyte cultured as 3D spheroids incubated for 14 days by CellTiter-Glo luminescence assay; format: toxicity, cell-based; conditions: hepatocytes cultured as 3D spheroids
[20] = Unbound clearance in mouse liver microsomes at 0.5 uM incubated upto 45 mins; format: ADME, Microsome; conditions: 0.75 h
[21] = Inhibition of STT3A/STT3B mediated N-linked glycosylation in STT3B knockout human H1-HeLa cells stably transduced with Halo3N-ER sequence by measuring effective concentration incubated for 24 hrs by Western blotting analysis; format: cell-based
[22] = Unbound clearance in human liver microsomes at 0.5 uM incubated upto 45 mins; format: ADME, Microsome; conditions: 0.75 h
[23] = Cardiotoxicity in human iPSC-CM cells assessed as decrease in spike amplitude at 3 uM incubated for 1 hr by multi-electrode array analysis; format: toxicity, cell-based; design: scale not given: the % may be the effect or the level left
[24] = tested on: Influenza A virus; test: Antiviral activity against influenza A virus H1N1 A/Puerto Rico/8/1934 infected in MDCK cells assessed as reduction in viral proliferation incubated for 24 hrs by FFU assay; format: functional, organism-based; conditions: H1N1 A/Puerto Rico/8/1934, MDCK
[25] = tested on: Influenza A virus; test: Antiviral activity against influenza A virus H1N1 A/Puerto Rico/8/1934 infected in MDCK cells assessed as reduction in viral replication measured after 3 hrs of post-infection by RT-qPCR analysis relative to control; format: functional; design: scale not given: the % may be the effect or the level left
[26] = Cardiotoxicity in human iPSC-CM cells assessed as decrease in spike amplitude at 370 nM incubated for 48 hr by multi-electrode array analysis; format: toxicity, cell-based; conditions: 0.37 µM
[27] = tested on: H1-HeLa; test: Inhibition of STT3A/STT3B in human H1-HeLa cells assessed as upregulation of […] gene expression incubated for 24 hrs; format: cell-based
[28] = Neurotoxicity in human iPSC cells co-cultured with human astrocyte assessed as inhibition of cell growth at 300 nM incubated for 48 hr by multi-electrode array analysis relative to control; format: toxicity, cell-based; conditions: iPSC cells co-cultured with astrocytes
[29] = tested on: A549; test: Cytotoxicity against human A549 cells by fluorescent cell imaging assay; format: functional
[30] = tested on: H1-HeLa; test: Inhibition of STT3A/STT3B in human H1-HeLa cells assessed as upregulation of SDF2L1 gene expression incubated for 24 hrs; format: cell-based
[31] = tested on: A549; test: Cytotoxicity against human A549 cells; format: functional
[32] = tested on: H1-HeLa; test: Inhibition of STT3A/STT3B in human H1-HeLa cells assessed as upregulation of DERL3 gene expression incubated for 24 hrs; format: cell-based
[33] = Cardiotoxicity in human iPSC-CM cells assessed as increase in field potential duration at 370 nM incubated for 48 hr by multi-electrode array analysis; format: toxicity, cell-based; conditions: 0.37 µM
[34] = tested on: Influenza A virus; test: Antiviral activity against influenza A virus H1N1 A/Puerto Rico/8/1934 infected in MDCK cells assessed as reduction in viral replication measured after 30 hrs of post-infection by RT-qPCR analysis relative to control; format: functional; design: scale not given: the % may be the effect or the level left
[35] = tested on: H1-HeLa; test: Inhibition of STT3A/STT3B in human H1-HeLa cells assessed as upregulation of MANF gene expression incubated for 24 hrs; format: cell-based
[36] = molecular target: Sodium channel protein type 5 subunit alpha (Homo sapiens, UniProt Q14524); test: Inhibition of Nav1.5 (unknown origin); format: toxicity
[37] = molecular target: Voltage-dependent L-type calcium channel subunit alpha-1C (Homo sapiens, UniProt Q13936); test: Inhibition of Cav1.2 (unknown origin) expressed in HEK cells by manual patch clamp assay; format: toxicity, cell-based
Sequence of Voltage-dependent L-type calcium channel subunit alpha-1C (Q13936 whole entry): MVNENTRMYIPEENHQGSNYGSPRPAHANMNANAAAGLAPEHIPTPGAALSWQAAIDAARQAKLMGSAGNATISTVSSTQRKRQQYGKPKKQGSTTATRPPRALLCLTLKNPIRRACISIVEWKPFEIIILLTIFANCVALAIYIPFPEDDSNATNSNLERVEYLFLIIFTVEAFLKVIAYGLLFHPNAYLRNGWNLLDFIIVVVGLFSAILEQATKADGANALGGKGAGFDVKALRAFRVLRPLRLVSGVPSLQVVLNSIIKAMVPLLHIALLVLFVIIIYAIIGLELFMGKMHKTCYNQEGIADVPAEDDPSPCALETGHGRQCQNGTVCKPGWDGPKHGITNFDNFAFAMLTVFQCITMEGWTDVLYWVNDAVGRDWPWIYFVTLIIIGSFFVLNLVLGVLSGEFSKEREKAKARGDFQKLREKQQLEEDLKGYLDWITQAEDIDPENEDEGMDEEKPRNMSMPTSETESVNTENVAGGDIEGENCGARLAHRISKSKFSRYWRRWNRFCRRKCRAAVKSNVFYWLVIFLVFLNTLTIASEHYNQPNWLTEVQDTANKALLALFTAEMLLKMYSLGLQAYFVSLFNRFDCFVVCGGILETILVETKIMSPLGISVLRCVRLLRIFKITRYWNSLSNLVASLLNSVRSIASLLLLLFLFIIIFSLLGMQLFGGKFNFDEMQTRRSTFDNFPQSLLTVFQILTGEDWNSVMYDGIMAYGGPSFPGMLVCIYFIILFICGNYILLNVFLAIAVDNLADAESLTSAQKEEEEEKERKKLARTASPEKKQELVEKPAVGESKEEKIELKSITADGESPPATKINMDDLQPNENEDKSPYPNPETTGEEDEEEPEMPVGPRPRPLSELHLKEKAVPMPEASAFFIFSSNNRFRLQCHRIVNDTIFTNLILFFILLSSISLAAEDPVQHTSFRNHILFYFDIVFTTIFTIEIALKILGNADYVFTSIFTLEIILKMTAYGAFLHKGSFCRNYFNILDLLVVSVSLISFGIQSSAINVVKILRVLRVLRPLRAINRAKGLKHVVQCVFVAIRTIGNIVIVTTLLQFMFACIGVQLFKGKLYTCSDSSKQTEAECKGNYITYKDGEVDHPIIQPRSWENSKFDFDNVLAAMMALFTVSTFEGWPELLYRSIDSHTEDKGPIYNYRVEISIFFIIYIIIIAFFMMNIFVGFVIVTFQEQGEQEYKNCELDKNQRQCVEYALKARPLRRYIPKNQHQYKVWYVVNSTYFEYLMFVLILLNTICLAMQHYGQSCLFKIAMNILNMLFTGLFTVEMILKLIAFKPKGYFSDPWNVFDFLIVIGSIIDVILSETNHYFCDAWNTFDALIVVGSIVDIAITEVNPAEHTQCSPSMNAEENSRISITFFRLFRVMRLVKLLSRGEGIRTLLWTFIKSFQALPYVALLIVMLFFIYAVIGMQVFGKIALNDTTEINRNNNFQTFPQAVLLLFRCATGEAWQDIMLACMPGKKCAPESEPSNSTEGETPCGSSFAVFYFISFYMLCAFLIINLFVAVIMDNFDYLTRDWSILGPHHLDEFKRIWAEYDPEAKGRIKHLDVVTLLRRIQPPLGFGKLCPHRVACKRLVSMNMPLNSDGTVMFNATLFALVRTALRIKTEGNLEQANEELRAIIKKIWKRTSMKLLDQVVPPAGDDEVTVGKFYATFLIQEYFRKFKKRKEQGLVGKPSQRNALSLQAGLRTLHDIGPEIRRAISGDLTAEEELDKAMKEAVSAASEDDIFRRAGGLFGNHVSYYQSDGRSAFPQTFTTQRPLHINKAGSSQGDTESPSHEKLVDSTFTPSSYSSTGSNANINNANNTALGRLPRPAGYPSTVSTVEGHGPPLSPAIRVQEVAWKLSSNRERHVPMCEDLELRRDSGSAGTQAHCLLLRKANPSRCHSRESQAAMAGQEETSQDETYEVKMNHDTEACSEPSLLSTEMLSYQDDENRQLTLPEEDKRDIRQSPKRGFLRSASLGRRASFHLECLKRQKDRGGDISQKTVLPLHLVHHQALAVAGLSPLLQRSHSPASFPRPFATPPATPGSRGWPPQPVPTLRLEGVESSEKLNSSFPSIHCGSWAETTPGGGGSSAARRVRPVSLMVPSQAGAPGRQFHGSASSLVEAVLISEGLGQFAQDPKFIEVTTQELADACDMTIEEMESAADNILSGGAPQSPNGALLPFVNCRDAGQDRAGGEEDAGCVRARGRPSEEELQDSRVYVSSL

[38] = Cardiotoxicity in human iPSC-CM cells assessed as increase in field potential duration at 10 uM incubated for 1 hr by multi-electrode array analysis; format: toxicity, cell-based
[39] = Neurotoxicity in human iPSC cells co-cultured with human astrocyte assessed as […] incubated for 1 hr by multi-electrode array analysis; format: toxicity, cell-based; conditions: iPSC cells co-cultured with astrocytes
[40] = Unbound clearance in rat liver microsomes at 0.5 uM incubated upto 45 mins; format: ADME, Microsome; conditions: 0.75 h
[41] = tested on: Human respirovirus 3; test: Antiviral activity against Human parainfluenza virus 3 JS infected in human A549 cells assessed as reduction in viral proliferation incubated for 44 hrs by Hoechst dye based fluorescence analysis; format: functional, organism-based; conditions: Human respirovirus 3, JS, A549, 44 h
[42] = Cardiotoxicity in human iPSC-CM cells assessed as decrease in beat period at 1 uM incubated for 48 hr by multi-electrode array analysis; format: toxicity, cell-based
[43] = Cardiotoxicity in human iPSC-CM cells assessed as decrease in beat period at 30 uM incubated for 1 hr by multi-electrode array analysis; format: toxicity, cell-based
[44] = molecular target: T1, Voltage-gated inwardly rectifying potassium channel KCNH2 (Homo sapiens, UniProt Q12809); test: Inhibition of hERG expressed in CHO cells by QPatch voltage clamp assay; format: toxicity, cell-based
T1 sequence (Q12809 whole entry): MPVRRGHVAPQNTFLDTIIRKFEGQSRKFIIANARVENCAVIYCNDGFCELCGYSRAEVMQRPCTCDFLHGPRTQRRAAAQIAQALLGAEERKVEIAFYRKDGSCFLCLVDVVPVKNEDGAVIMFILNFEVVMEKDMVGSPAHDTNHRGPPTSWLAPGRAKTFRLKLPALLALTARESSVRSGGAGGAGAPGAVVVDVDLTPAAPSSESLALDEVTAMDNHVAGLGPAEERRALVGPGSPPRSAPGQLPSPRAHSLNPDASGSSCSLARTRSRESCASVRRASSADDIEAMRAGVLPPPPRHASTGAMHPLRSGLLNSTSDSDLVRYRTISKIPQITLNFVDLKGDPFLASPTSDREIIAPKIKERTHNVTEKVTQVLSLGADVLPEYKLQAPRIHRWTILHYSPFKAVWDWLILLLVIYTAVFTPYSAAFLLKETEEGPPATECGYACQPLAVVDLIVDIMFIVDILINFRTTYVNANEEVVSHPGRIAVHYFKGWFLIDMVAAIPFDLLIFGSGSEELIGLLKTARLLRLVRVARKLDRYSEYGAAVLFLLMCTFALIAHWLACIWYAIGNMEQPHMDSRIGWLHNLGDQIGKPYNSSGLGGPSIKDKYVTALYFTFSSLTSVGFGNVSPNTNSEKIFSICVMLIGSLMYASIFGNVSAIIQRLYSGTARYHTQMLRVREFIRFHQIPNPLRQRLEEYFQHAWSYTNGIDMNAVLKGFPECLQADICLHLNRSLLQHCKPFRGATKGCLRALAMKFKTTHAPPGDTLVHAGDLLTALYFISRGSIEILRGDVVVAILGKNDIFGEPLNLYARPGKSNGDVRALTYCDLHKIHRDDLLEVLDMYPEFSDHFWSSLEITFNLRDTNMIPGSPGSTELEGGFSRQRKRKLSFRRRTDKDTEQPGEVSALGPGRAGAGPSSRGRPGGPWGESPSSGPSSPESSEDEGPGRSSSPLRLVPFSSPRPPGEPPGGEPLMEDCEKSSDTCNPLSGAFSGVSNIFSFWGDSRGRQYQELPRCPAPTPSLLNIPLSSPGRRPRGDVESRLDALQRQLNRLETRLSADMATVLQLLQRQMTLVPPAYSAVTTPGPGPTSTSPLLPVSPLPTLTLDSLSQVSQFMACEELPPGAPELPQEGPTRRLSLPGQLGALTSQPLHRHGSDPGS

[45] = Neurotoxicity in human iPSC cells co-cultured with human astrocyte assessed as reduction in neuronal firing rate at 0.37 to 30 uM incubated for 1 hr by multi-electrode array analysis; format: toxicity, cell-based; conditions: dose 0.37-30 µM
[46] = tested on: Human coronavirus 229E; test: Antiviral activity against Human coronavirus 229E infected in human MRC5 cells assessed as reduction in viral growth incubated for 68 hrs by CellTiter-Glo luminescence assay; format: functional, organism-based; conditions: MRC5, 68 h
[47] = tested on: SARS-CoV-2; test: Antiviral activity against SARS-CoV-2 infected in human A549 cells assessed as reduction in viral growth incubated for 24 hrs by Nano-Glo reagent based analysis; format: functional, organism-based; conditions: Severe acute respiratory syndrome coronavirus 2, A549, 24 h
[48] = Cytotoxicity against human MRC5 cells by luminescence-based cell viability assay; format: toxicity
[49] = molecular target: T1, Voltage-gated inwardly rectifying potassium channel KCNH2; test: Inhibition of HA-tagged hERG expressed in human U2OS cells assessed as reduction in ERG protein at 3 uM incubated for 24 hrs by Western blotting analysis; format: toxicity, cell-based

C=C[C@H]1C[N@@]2CC[C@H]1C[C@@H]2[C@@H](O)c1ccnc2ccc(OC)cc12 [QUINIDINE]
Activity [1]: Non-Toxic
Activity [2]: Non-Toxic

C[S@@](=N)(=O)c1ccc(N2CC[C@H](O)C2)c(-c2cc3ccccc3[nH]2)c1
inhibition [3]: Active
CL free [4]: 38 mL/min/kg
inhibition [5]: Active
solubility [6]: 767 µg/mL (≈ 2160 µM)
MRT [7]: 3 h
chromatographic logD [8]: 2.7
inhibition [9]: Active
inhibition [10]: Active
inhibition [11]: Active
EC50 [12]: 15 nM
bioavailability [13]: 62%
inhibition [14]: Active
inhibition [15]: Active
inhibition [16]: Active
Vdss [17]: 2 L/kg
EC50 [18]: 28 nM
IC50 at 14 days [19]: < 1200 nM
CL free [20]: 30 mL/min/kg
EC50 [21]: 10 nM
CL free [22]: < 12 mL/min/kg

CN(C)S(=O)(=O)c1ccc(N2CC[C@H](O)C2)c(-c2cc3ccccc3[nH]2)c1
Activity [23]: 20%
EC50 [24]: 297 nM
CL free [4]: 2268 mL/min/kg
solubility [6]: 53 µg/mL (≈ 137 µM)
Activity [25]: >90%
Activity [26]: Toxic
inhibition [27]: Active
MRT [7]: 1 h
inhibition at 48 h, 0.3 µM [28]: 75%
chromatographic logD [8]: 4.8
CC50 [29]: 831 nM
inhibition [30]: Active
CC50 [31]: 2750 nM
inhibition [32]: Active
Activity [33]: Toxic
EC50 [12]: 23 nM
Activity [34]: 60%
bioavailability [13]: 28%
inhibition [35]: Active
IC50 [36]: ~20000 nM
Vdss [17]: 4.3 L/kg
IC50 [37]: > 100000 nM
Activity [38]: 20%
IC50 at 1 hr [39]: 23000 nM
CL free [40]: 3761 mL/min/kg
EC50 [41]: 187 nM
EC50 [18]: 63 nM
Activity [42]: Toxic
Activity [43]: Toxic
IC50 [44]: ~20000 nM
Activity [45]: Toxic
IC50 at 14 days [19]: < 1200 nM
EC50 [46]: 30 nM
EC50 [47]: 62 nM
EC50 [21]: 41 nM
CC50 [48]: 984 nM
CL free [22]: 158 mL/min/kg

O=C([C@@H]1CCN1S(=O)(=O)c1ccc(N2CCC(F)(F)C2)c(-c2cc3ccccc3[nH]2)c1)N1CCOCC1
chromatographic logD [8]: 5.3
EC50 [12]: 5 nM
inhibition (INH) [49]: Active
CL free [40]: > 4854 mL/min/kg
IC50 at 14 days [19]: < 1200 nM
CL free [22]: > 2851 mL/min/kg

From ChEMBL document CHEMBL5576149, “Discovery of Potent STT3A/B Inhibitors and Assessment of Their Multipathogen Antiviral Potential and Safety” (J Med Chem, 2024)
